We go through 15 substances from patent US7517529B2, “Treatment of type I diabetes” (Biotempt B.V., priority 2003, dated 2009).

Ends that are not written are not given here.

Experiment [1] concerns NFκB. Kind of experiment: EMSA of nuclear extracts, basal and LPS-induced NFκB translocation in RAW 264.7 mouse macrophages. Format: cell-based. The note with it: 30 minutes; for LPS-induced translocation of NFκB: LPS in combination with peptide (1 microgr/ml; 1 mg/ml); for Basal levels of NFκB in the nucleus: peptide without LPS. As for the experimental part: RAW 264.7 mouse macrophages were cultured in DMEM, containing 10% or 2% FBS, penicillin, streptomycin and glutamine, at 37° C., 5% CO2. Cells were seeded in a 12-wells plate (3×10^6 cells/ml) in a total volume of 1 ml for two hours and then stimulated with LPS (E. coli 026:B6; Difco Laboratories, Detroit, Mich., USA) and/or gene-regulatory peptide (1 microgr/ml). After 30 minutes of incubation, plates were centrifuged and cells were collected for nuclear extracts. Nuclear extracts and EMSA were prepared according to Schreiber et al. Cells were collected in a tube and centrifuged for five minutes at 2000 rpm (rounds per minute) at 4° C. (Universal 30 RF, Hettich Zentrifuges). The pellet was washed with ice-cold Tris buffered saline (TBS pH 7.4) and resuspended in 400 μl of a hypotonic buffer A (10 mM HEPES pH 7.9, 10 mM KCl, 0.1 mM EDTA, 0.1 mM EGTA, 1 mM DTT, 0.5 mM PMSF and protease inhibitor cocktail (Complete™ Mini, Roche) and left on ice for 15 minutes. Twenty-five microliters 10% NP-40 was added and the sample was centrifuged (two minutes, 4000 rpm, 4° C.). The supernatant (cytoplasmic fraction) was collected and stored at −70° C. The pellet, which contains the nuclei, was washed with 50 μl buffer A and resuspended in 50 μl buffer C (20 mM HEPES pH 7.9, 400 mM NaCl, 1 mM EDTA, 1 mM EGTA, 1 mM DTT, 0.5 mM PMSF and protease inhibitor cocktail and 10% glycerol). The samples were left to shake at 4° C. for at least 60 minutes. Finally the samples were centrifuged and the supernatant (nucleic fraction) was stored at −70° C.
Bradford reagent (Sigma) was used to determine the final protein concentration in the extracts. For electrophoretic mobility shift assays an oligonucleotide representing NFκB-binding sequence (5′-AGCTCAGAGGGGGACTTTCCGAGAG-3′ (SEQ ID NO:28)) was synthesized. Hundred pico mol sense and antisense oligo were annealed and labeled with […] using T4 polynucleotide kinase according to the manufacturer's instructions (Promega, Madison, Wis.). Nuclear extract (5 to 7.5 μg) was incubated for 30 minutes with 75000 cpm probe in binding reaction mixture (20 microliters) containing 0.5 μg poly dI-dC (Amersham Pharmacia Biotech) and binding buffer BSB (25 mM MgCl2, 5 mM CaCl2, 5 mM DTT and 20% Ficoll) at room temperature. The DNA-protein complex was resolved from free oligonucleotide by electrophoresis in a 4 to 6% polyacrylamide gel (150 V, two to four hours). The gel was then dried and exposed to x-ray film. The transcription factor NFκB participates in the transcriptional regulation of a variety of genes. Nuclear protein extracts were prepared from either LPS (1 mg/ml), peptide (1 mg/ml) or LPS in combination with peptide-treated and untreated RAW264.7 cells. In order to determine whether the peptides modulate the translocation of NFκB into the nucleus, on these extracts EMSA was performed. Peptides are able to modulate the basal as well as LPS-induced levels of NFκB. In this experiment peptides that show the inhibition of LPS-induced translocation of NFκB are: […] (SEQ ID NO:21), […] (SEQ ID NO:22), LQG, LQGV (SEQ ID NO:1), […] (SEQ ID NO:23), VLPALP (SEQ ID NO:4), VVC, MTR and circular […] (SEQ ID NO: 17). Peptides that in this experiment promote LPS-induced translocation of NFκB are: VLPALPQ (SEQ ID NO:13), GVLPALP (SEQ ID NO:16) and MTRV (SEQ ID NO:20). Basal levels of NFκB in the nucleus was decreased by […] (SEQ ID NO:21), […] (SEQ ID NO:22), LQG and LQGV (SEQ ID NO:1) while basal levels of NFκB in the nucleus was increased by […] (SEQ ID NO:23), VLPALPQ (SEQ ID NO:13), GVLPALP (SEQ ID NO:16), VVC, MTRV (SEQ ID NO:20), MTR and […].
On the technique in general: A gel shift assay detects complexes by their altered migration in electrophoresis.

Experiment [2] deals with production of NO by a cell. Kind of experiment: Production of NO by a cell. Type of experiment: cell-based.
The subject of experiment [3] is NFκB. As to the kind of experiment: Other experiments on translocation of NFκB into nucleus (data not shown). Type of experiment: cell-based.
Experiment [4] relates to relapsing-remitting multiple sclerosis. The note with it: treated group, trial of 251 patients; cited from earlier work.

Regarding VLPALPQVVC, in the experiment with NFκB [1], the “LPS-induced translocation of NFκB” value is “inhibition” and the “Basal levels of NFκB in the nucleus” value is given as “decreased”. For the same substance, the “production of NO by a cell” value in experiment [2] was “capable of reducing production of NO by a cell”.
For the substance MTRV, in the experiment on NFκB [1], the “LPS-induced translocation of NFκB” value is “promote” and the “Basal levels of NFκB in the nucleus” value is given as “increased”.
For the substance QVVC, the “modulation of translocation of NFκB into nucleus” value with NFκB [3] is “modulation of translocation of NFκB into nucleus”.
On to LQGVLPALPQVVC, for which the “Basal levels of NFκB in the nucleus” value in the experiment with NFκB [1] is “increased”.
As to Glatiramer acetate, in experiment [4], the “annual relapse rate reduced by” value is listed as 25%.
For the substance MTR, in the experiment on NFκB [1], the “LPS-induced translocation of NFκB” value is “inhibition” and the “Basal levels of NFκB in the nucleus” value is reported as “increased”.
Consider VLPALP, for which the “LPS-induced translocation of NFκB” value in the experiment on NFκB [1] is given as “inhibition”. Also, the “production of NO by a cell” value in experiment [2] was “capable of reducing production of NO by a cell”.
For the substance VVC, in the experiment on NFκB [1], the “LPS-induced translocation of NFκB” value is “inhibition” and the “Basal levels of NFκB in the nucleus” value is on record as “increased”.
With LQGV, in the experiment with NFκB [1], the “LPS-induced translocation of NFκB” value is recorded as “inhibition” and the “Basal levels of NFκB in the nucleus” value was “decreased”. For the same substance, the “production of NO by a cell” value in experiment [2] is listed as “capable of reducing production of NO by a cell”.
The like results for LQGVLPALPQ were, in that order, “inhibition”, “decreased” and “capable of reducing production of NO by a cell”.
In the case of GVLPALP, in the experiment on NFκB [1], the “LPS-induced translocation of NFκB” value is “promote” and the “Basal levels of NFκB in the nucleus” value was “increased”.
Regarding “circular LQGVLPALPQVVC (also: circular/cyclised, mode not given here)”, in the experiment on NFκB [1], the “LPS-induced translocation of NFκB” value is “inhibition”.
Regarding LQG, in the experiment on NFκB [1], the “LPS-induced translocation of NFκB” value is recorded as “inhibition” and the “Basal levels of NFκB in the nucleus” value is listed as “decreased”. The “production of NO by a cell” value in experiment [2] is on record as “capable of reducing production of NO by a cell”.
Consider GVLPALPQ, for which, in the experiment with NFκB [1], the “LPS-induced translocation of NFκB” value was “inhibition” and the “Basal levels of NFκB in the nucleus” value is on record as “increased”.
The like results for VLPALPQ were, in that order, “promote” and “increased”.
